Biological target: human PDE1B (Homo sapiens (Human), UniProt Q01064)
Assay: PDE1B inhibitory assay (IMAP TR-FRET)
Conditions: 200 nM FAM-cAMP, Calmodulin, CaCl2; for PDE1B pIC50: negative log of half-maximal molar inhibitory concentration; for IC50: PDE1B pIC50, negative log of half-maximal molar inhibitory concentration
Description: PDE1B inhibition was determined by an IMAP TR-FRET assay.
After a brief centrifugation, the plates were incubated for 30 minutes at room temperature. The assay was terminated by adding 5 μL IMAP binding reagent/Tb complex (Molecular Devices, Sunnyvale, Calif.) to each well.
Plates were incubated 1 hour at room temperature and read on a Viewlux multimode plate reader (Perkin Elmer). The instrument was set to excite using the DUG11 filter and measure using 490/10 nm and 520/10 nm filters. Ratios of acceptor and donor were then calculated.
For IC50 calculations, the values of % efficacy versus a series of compound concentrations were then plotted using non-linear regression analysis of sigmoidal dose-response curves generated with the equation Y=B+(T−B)/1+10((Log EC50−X)×Hill Slope), where Y=percent activity, B=minimum percent efficacy, T=maximum percent efficacy, X=logarithm of compound and Hill Slope=slope factor or Hill coefficient. The IC50 value was determined by the concentration causing a half-maximal percent efficacy.

Row | Compound | PDE1B pIC50 | IC50 [nM]
1 | COc1ccc(Cn2c(=O)n3ncnc3c3c4c(sc32)CN(Cc2ccccn2)CC4)cc1 [Example 120] | >7 | 
2 | COc1ccc(Cn2c(=O)n3ncnc3c3cc(CN4CCN5C(=O)OCC5C4)cnc32)cc1 (stereo not drawn) [Example 246] | >7 | 
3 | C[C@@H]1CN(Cc2cnc3c(c2)c2ncnn2c(=O)n3Cc2ccc(OC(F)F)cc2F)C[C@H](C)O1 [Example 290] |  | 100 to 1000
4 | COc1ccc(Cn2c(=O)n3ncnc3c3c(C)c(CO)sc32)cc1 [Example 77, 8-(Hydroxymethyl)-6-(4-methoxybenzyl)-9-methylthieno[3,2-e][1,2,4]triazolo[1,5-c]pyrimidin-5(6H)-one] |  | 100 to 1000
5 | COc1ccc(Cn2c(=O)n3ncnc3c3cc(C(O)CN4CCOCC4)cnc32)cc1 (stereo not drawn) [Example 267, 9-(1-Hydroxy-2-morpholinoethyl)-6-(4-methoxybenzyl)pyrido[3,2-e][1,2,4]triazolo[1,5-c]pyrimidin-5(6H)-one] |  | 100 to 1000
6 | COc1ccc(Cn2c(=O)n3ncnc3c3c(C)c(CN4CC5CCC(C4)O5)sc32)cc1 [Example 67] | >7 | 
7 | COCCN1CCN(Cc2cnc3c(c2)c2ncnn2c(=O)n3Cc2ccc(OC)cc2)CC1 [Example 238] |  | 1000 to 10000
8 | COc1ccc(Cn2c(=O)n3ncnc3c3c(C)c(CNCC4(C)COC4)sc32)cc1 [Example 50] | >7 | 
9 | COc1ccc(Cn2c(=O)n3ncnc3c3cc(-c4ccc(OC)c(OC)c4)cnc32)cc1 [Example 189, 9-(3,4-Dimethoxyphenyl)-6-(4-methoxybenzyl)pyrido[3,2-e][1,2,4]triazolo[1,5-c]pyrimidin-5(6H)-one] | >7 | 
10 | COc1ccc(Cn2c(=O)n3ncnc3c3cc(C(N4CCOCC4)C(F)(F)F)cnc32)cc1 (stereo not drawn) [Example 272, 6-(4-Methoxybenzyl)-9-(2,2,2-trifluoro-1-morpholinoethyl)pyrido[3,2-e][1,2,4]triazolo[1,5-c]pyrimidin-5(6H)-one] | >7 | 
11 | COc1ccc(Cn2c(=O)n3ncnc3c3c4c(sc32)CN(C(C)C(F)F)CC4)cc1 (stereo not drawn) [Example 151] |  | 100 to 1000
12 | COc1ccc(Cn2c(=O)n3ncnc3c3c(C)c(CN(C)CC4CCOC4)sc32)cc1 (stereo not drawn) [Example 59] | >7 | 
13 | COc1ccc(Cn2c(=O)n3ncnc3c3c4c(sc32)CN(Cc2ccncn2)CC4)cc1 [Example 119] | >7 | 
14 | COc1ccc(Cn2c(=O)n3ncnc3c3c(C)c(CN4CCC(O)CC4)sc32)cc1 [Example 47] | >7 | 
15 | C[C@@H]1CN(Cc2cnc3c(c2)c2ncnn2c(=O)n3Cc2ccc(N3CCCC3=O)cc2)C[C@H](C)O1 [Example 300] | <5 | 
16 | COc1ccc(Cn2c(=O)n3ncnc3c3cc(CN4CCN(C)CC4)sc32)cc1 [Example 32] |  | 100 to 1000
17 | O=c1n(Cc2ccccc2Cl)c2sccc2c2ncnn12 [Example 1, 6-(2-Chlorobenzyl)thieno[3,2-e][1,2,4]triazolo[1,5-c]pyrimidin-5(6H)-one] |  | 1000 to 10000
18 | C[C@@H]1CN(Cc2cnc3c(c2)c2ncnn2c(=O)n3Cc2ccc(C#N)cc2)C[C@H](C)O1 [Example 279] | <5 | 
19 | COc1ccc(Cn2c(=O)n3ncnc3c3c4c(sc32)CN(CC(C)(C)C)CC4)cc1 [Example 115] | >7 | 
20 | O=c1n(Cc2ccc(Cl)cc2)c2sccc2c2ncnn12 [Example 5] |  | 100 to 1000
21 | COc1c(F)cc(Cn2c(=O)n3ncnc3c3c4c(sc32)COCC4)cc1F [Example 98] | <5 | 
22 | COc1ccc(Cn2c(=O)n3ncnc3c3c4c(sc32)CN(C(=O)C2CCN(C)C2)CC4)cc1 (stereo not drawn) [Example 163] |  | 100 to 1000

Row | Compound | PDE1B pIC50 | IC50 [nM]
23 | COc1ccc(Cn2c(=O)n3ncnc3c3cc(CN4CCN(CC5CCOC5)CC4)cnc32)cc1 (stereo not drawn) [Example 251, 6-(4-Methoxybenzyl)-9-((4-((tetrahydrofuran-3-yl)methyl)piperazin-1-yl)methyl)pyrido[3,2-e][1,2,4]triazolo[1,5-c]pyrimidin-5(6H)-one] |  | 1000 to 10000
24 | O=c1n(Cc2ccc(-c3ccccc3)cc2)c2sc(Cc3ccccc3)cc2c2ncnn12 [Example 18] |  | 1000 to 10000
25 | Cc1cc2c(s1)n(Cc1cccc(Cl)c1)c(=O)n1ncnc21 [Example 16] |  | 1000 to 10000
26 | C=C(OCC)c1cnc2c(c1)c1ncnn1c(=O)n2Cc1ccc(OC)cc1 [Example 216] |  | 100 to 1000
27 | Cn1ccnc1CN1CCc2c(sc3c2c2ncnn2c(=O)n3Cc2ccc(Cl)cc2F)C1 [Example 131] | >7 | 
28 | COc1ccc(Cn2c(=O)n3ncnc3c3c(C)c(CN4CCN(C)C(C)C4)sc32)cc1 (stereo not drawn) [Example 73] | >7 | 
29 | C[C@@H]1CN(Cc2cnc3c(c2)c2ncnn2c(=O)n3Cc2ccc(C(C)(C)C)cc2)C[C@H](C)O1 [Example 280] | <5 | 
30 | COc1ccc(Cn2c(=O)n3ncnc3c3c4c(sc32)CN(CC2CCOC2)CC4)cc1 (stereo not drawn) [Example 113] | >7 | 
31 | COc1ccc(Cn2c(=O)n3ncnc3c3c4c(sc32)CN(Cc2ccc3c(c2)OC(F)(F)O3)CC4)cc1 [Example 114] |  | 100 to 1000
32 | COc1ccc(Cn2c(=O)n3ncnc3c3cc(-n4nc(C)ccc4=O)cnc32)cc1 [Example 192, 6-(4-Methoxybenzyl)-9-(3-methyl-6-oxopyridazin-1(6H)-yl)pyrido[3,2-e][1,2,4]triazolo[1,5-c]pyrimidin-5(6H)-one] |  | 100 to 1000
33 | COc1ccc(Cn2c(=O)n3ncnc3c3cc(CN(C)C4CCOCC4)cnc32)cc1 [Example 237] |  | 1000 to 10000
34 | COc1ccc(Cn2c(=O)n3ncnc3c3cc(N(C)CCCN(C)C)cnc32)cc1 [Example 202] |  | 1000 to 10000
35 | COc1ccc(Cn2c(=O)n3ncnc3c3cc(C(O)C(F)(F)F)cnc32)cc1 (stereo not drawn) [Example 271, 6-(4-Methoxybenzyl)-9-(2,2,2-trifluoro-1-hydroxyethyl)pyrido[3,2-e][1,2,4]triazolo[1,5-c]pyrimidin-5(6H)-one] |  | 100 to 1000
36 | O=c1n(Cc2ccccc2)c2sc3c(c2c2ncnn12)CCCC3 [Example 84] |  | 100 to 1000
37 | COc1ccc(Cn2c(=O)n3ncnc3c3cc(CN(C)C)cnc32)cc1 [Example 219] |  | 1000 to 10000
38 | CCOc1ccc(Cn2c(=O)n3ncnc3c3cc(CN4C[C@@H](C)O[C@@H](C)C4)cnc32)cc1 [Example 301] |  | 100 to 1000
39 | COc1ccc(Cn2c(=O)n3ncnc3c3c4c(sc32)CN(Cc2ncccn2)CC4)c(F)c1 [Example 137] | >7 | 
40 | COc1ccc(Cn2c(=O)n3ncnc3c3c4c(sc32)CN(Cc2ccccn2)CCC4)cc1 [Example 146] | >7 | 
41 | COc1ccc(Cn2c(=O)n3ncnc3c3c4c(sc32)N(CC2CCCOC2)CCC4)cc1 (stereo not drawn) [Example 149] | >7 | 
42 | O=c1n(Cc2ccc(Cl)cc2)c2sc3c(c2c2ncnn12)CCOC3 [Example 87] |  | 100 to 1000
43 | C[C@@H]1CN(Cc2cnc3c(c2)c2ncnn2c(=O)n3Cc2ccccc2SC(F)(F)F)C[C@H](C)O1 [Example 293] | <5 | 
44 | COc1ccc(Cn2c(=O)n3ncnc3c3c4c(sc32)CN(Cc2nccn2C)CCC4)cc1 [Example 144] | >7 | 

Row | Compound | PDE1B pIC50 | IC50 [nM]
45 | COc1ccc(Cn2c(=O)n3ncnc3c3cc(CN4CCC5(CCOCC5)N4C)cnc32)cc1 [Example 228] | >7 | 
46 | COc1ccc(Cn2c(=O)n3ncnc3c3cc(CN4CC(C)OCC4C)cnc32)cc1 (stereo not drawn) [Example 225] | >7 | 
47 | O=c1n(Cc2cccc(Cl)c2)c2sccc2c2ncnn12 [Example 2] |  | 1000 to 10000
48 | COc1ccc(Cn2c(=O)n3ncnc3c3c(C)c(CN4CCCC4)sc32)cc1 [Example 43, 6-(4-Methoxybenzyl)-9-methyl-8-(pyrrolidin-1-ylmethyl)thieno[3,2-e][1,2,4]triazolo[1,5-c]pyrimidin-5(6H)-one] |  | 100 to 1000
49 | COc1ccc(Cn2c(=O)n3ncnc3c3ccc(C(OC)OC)nc32)cc1 [Example 187] |  | 1000 to 10000
50 | COc1ccc(Cn2c(=O)n3ncnc3c3c4c(sc32)CN(C(=O)C2CC2)CC4)c(F)c1 [Example 168] | >7 | 
51 | O=c1n(Cc2cccc(Cl)c2)c2sc3c(c2c2ncnn12)CCCC3 [Example 85] |  | 100 to 1000
52 | COc1ccc(Cn2c(=O)n3nccc3c3cc(CN4C[C@@H](C)O[C@@H](C)C4)sc32)cc1 [Example 184] | >7 | 
53 | O=c1n(Cc2ccccc2Cl)c2sc3c(c2c2ncnn12)CCCC3 [Example 81] |  | 1000 to 10000
54 | O=c1n(Cc2ccc(Cl)cc2F)c2sc3c(c2c2ncnn12)CCOC3 [Example 94] |  | 100 to 1000
55 | COc1ccc(Cn2c(=O)n3ncnc3c3c4c(sc32)CN(Cc2nccn2C)CC4)cc1 [Example 122] | >7 | 
56 | O=c1n(Cc2ccccc2)c2sc(Cc3ccccc3)cc2c2ncnn12 [Example 17] |  | 100 to 1000
57 | COc1ccc(Cn2c(=O)n3ncnc3c3c(C)c(CN4CC5CC4CO5)sc32)cc1 (stereo not drawn) [Example 65] | >7 | 
58 | COc1ccc(Cn2c(=O)n3ncnc3c3c(C)c(CN4CCOC(C)C4)sc32)cc1 (stereo not drawn) [Example 70] | >7 | 
59 | C[C@@H]1CN(Cc2cnc3c(c2)c2ncnn2c(=O)n3Cc2ccc3cnn(C)c3c2)C[C@H](C)O1 [Example 288] | <5 | 
60 | COc1ccc(Cn2c(=O)n3ncnc3c3c4c(sc32)CN(CC2CC2)CC4)cc1 [Example 110] | >7 | 
61 | COc1ccc(Cn2c(=O)n3ncnc3c3c(C)c(CN(C)CC4CCCO4)sc32)cc1 (stereo not drawn) [Example 54] | >7 | 
62 | COc1ccc(Cn2c(=O)n3ncnc3c3c4c(sc32)CN(CC2CCCOC2)CC4(F)F)cc1 (stereo not drawn) [Example 136] | >7 | 
63 | COc1ccc(Cn2c(=O)n3ncnc3c3cc(CN4C[C@@H](C)OC[C@H]4C)cnc32)cc1 [Example 248] |  | 100 to 1000
64 | COc1ccc(Cn2c(=O)n3ncnc3c3cc(CN4CCN(S(C)(=O)=O)CC4)cnc32)cc1 [Example 252, 6-(4-methoxybenzyl)-9-((4-(methylsulfonyl)piperazin-1-yl)methyl)pyrido[3,2-e][1,2,4]triazolo[1,5-c]pyrimidin-5(6H)-one] |  | 100 to 1000
65 | C[C@@H]1CN(Cc2cnc3c(c2)c2ncnn2c(=O)n3Cc2ccc(Cl)c(F)c2)C[C@H](C)O1 [Example 298] |  | 100 to 1000
66 | C[C@@H]1CN(Cc2cnc3c(c2)c2ncnn2c(=O)n3Cc2cccc(C#N)c2)C[C@H](C)O1 [Example 281] | <5 | 

From US10105367B2, “Therapeutic thiophene-, furan-, and pyridine-fused azolopyrimidin-5-(6h)-ones” (Dart Neuroscience (Cayman) Ltd., priority 2012, dated 2018)
